Data reported in ChEMBL document CHEMBL5120967, “Development of an Orally Active Small-Molecule Inhibitor of Receptor Activator of Nuclear Factor-κB Ligand” (J Med Chem, 2022).

Legend:
[1] = Anti-osteoporosis activity C57/BL6 mouse bone marrow macrophage cells assessed as inhibition of RANKL-induced osteoclastogenesis at 1 uM measured after 5 to 6 days in presence of M-CSF and RNKL by TRAP staining microscopic analysis; type: functional, BMDM; parameters: scale not given: the % may be the effect or the level left; settings: time 5-6 day
BMDM = experiment: Cytotoxicity against C57/BL6 mouse bone marrow macrophage cells assessed as reduction in cell viability at 10 uM incubated for 3 days by CCK8 assay; type: toxicity, cell-based; settings: 72 h, time 3 day
[2] = Anti-osteoporosis activity C57/BL6 mouse bone marrow macrophage cells assessed as inhibition of RANKL-induced osteoclastogenesis at 0.1 uM measured after 5 to 6 days in presence of M-CSF and RNKL by TRAP staining microscopic analysis; type: functional, BMDM; parameters: scale not given: the % may be the effect or the level left; settings: time 5-6 day

For `O=C(c1cc2c([nH]c3ccccc32)c(CCc2ccccc2)n1)N1CCOCC1`, which Activity [1] is on record?
Its Activity is 32.6%.

And the Cell viability (BMDM)?
Its Cell viability is > 100%.

Which results are given for `CNc1ccc(CCc2nc(C(=O)Nc3c(C)cccc3C)cc3c2[nH]c2ccccc23)cc1`?
Activity [1]: 37.9%; Cell viability (BMDM): > 100%

For `Cc1cccc(C)c1NC(=O)c1cc2c([nH]c3ccccc32)c(CCc2ccccc2F)n1`, which Activity [2] is on record?
The Activity was 26.7%.

And the Activity [1]?
The Activity was 66.7%.

What about the Cell viability (BMDM) of the same compound?
Its Cell viability is > 100%.

Which Activity [2] does the source give for `COc1cccc(CCc2nc(C(=O)Nc3c(C)cccc3C)cc3c2[nH]c2ccccc23)c1` here?
The Activity was 27.1%.

What about the Activity [1] of the same compound?
The Activity was 82.3%.

And the Cell viability (BMDM)?
The Cell viability was > 100%.

What does the source list for `O=C(NCc1ccccc1)c1cc2c([nH]c3ccccc32)c(CCc2ccccc2)n1`?
Activity [1]: 0%; Cell viability (BMDM): > 100%

Which Activity [1] does the source give for `O=C(NC1CCCCC1)c1cc2c([nH]c3ccccc32)c(CCc2ccccc2)n1` here?
The Activity was 0%.

And the Cell viability (BMDM)?
Its Cell viability is > 100%.

What does the source list for `O=C(NC1CCOCC1)c1cc2c([nH]c3ccccc32)c(CCc2ccccc2)n1`?
Activity [1]: 47.9%; Cell viability (BMDM): > 100%

With `Cc1cccc(C)c1NC(=O)c1cc2c([nH]c3ccccc32)c(CCc2ccc(Cl)cc2)n1` as the compound, how does the Activity [2] read?
Its Activity is 11.3%.

And the Activity [1]?
Its Activity is 52.5%.

And the Cell viability (BMDM)?
Its Cell viability is > 100%.

Which results are given for `CC(=O)Nc1ccc(CCc2nc(C(=O)Nc3c(C)cccc3C)cc3c2[nH]c2ccccc23)cc1`?
Activity [2]: 19%; Activity [1]: 55%; Cell viability (BMDM): > 100%

With `Cc1cccc(C)c1NC(=O)c1cc2c([nH]c3ccccc32)c(CCc2cccnc2)n1` as the compound, how does the Cell viability (BMDM) read?
The Cell viability was 51.2%.

What does the source list for `COc1ccc(CCc2nc(C(=O)Nc3c(C)cccc3C)cc3c2[nH]c2ccccc23)cc1`?
Activity [2]: 29.3%; Activity [1]: 75.7%; Cell viability (BMDM): > 100%

Which Activity [2] does the source give for `Cc1cccc(C)c1NC(=O)c1cc2c([nH]c3ccccc32)c(CCc2ccc(N)cc2)n1` here?
Its Activity is 11.4%.

What about the Activity [1] of the same compound?
The Activity was 70.3%.

And the Cell viability (BMDM)?
The Cell viability was > 100%.

For `Cc1cccc(C)c1NC(=O)c1cc2c([nH]c3ccccc32)c(CCc2cccc(F)c2)n1`, which Activity [2] is on record?
Its Activity is 21%.

What about the Activity [1] of the same compound?
Its Activity is 54.7%.

What about the Cell viability (BMDM) of the same compound?
The Cell viability was > 100%.

With `O=C(Nc1cccnc1)c1cc2c([nH]c3ccccc32)c(CCc2ccccc2)n1` as the compound, how does the Activity [1] read?
Its Activity is 18.3%.

What about the Cell viability (BMDM) of the same compound?
The Cell viability was > 100%.

For `Cc1cccc(C)c1NC(=O)c1cc2c([nH]c3ccccc32)c(CNc2ccccc2)n1`, which Cell viability (BMDM) is on record?
The Cell viability was 67.6%.

With `Cc1cccc(C)c1NC(=O)c1cc2c([nH]c3ccccc32)c(CCc2ccc(O)cc2)n1` as the compound, how does the Activity [1] read?
The Activity was 23.8%.

And the Cell viability (BMDM)?
Its Cell viability is 76.9%.

Which results are given for `Cc1cccc(C)c1NC(=O)c1cc2c([nH]c3ccccc32)c(CCc2cc(F)cc(F)c2)n1`?
Activity [1]: 35.2%; Cell viability (BMDM): > 100%

For `Cc1cccc(C)c1NC(=O)c1cc2c([nH]c3ccccc32)c(CCc2ccccc2O)n1`, which Activity [1] is on record?
Its Activity is 36%.

And the Cell viability (BMDM)?
The Cell viability was 87.1%.

With `Cl.O=C(NC1CCNCC1)c1cc2c([nH]c3ccccc32)c(CCc2ccccc2)n1` as the compound, how does the Activity [1] read?
The Activity was 0%.

And the Cell viability (BMDM)?
The Cell viability was 47.9%.

Which Activity [1] does the source give for `O=C(NC1CC1)c1cc2c([nH]c3ccccc32)c(CCc2ccccc2)n1` here?
Its Activity is 0%.

And the Cell viability (BMDM)?
Its Cell viability is > 100%.

For `Cc1cccc(C)c1NC(=O)c1cc2c([nH]c3ccccc32)c(CCc2nccs2)n1`, which Cell viability (BMDM) is on record?
The Cell viability was 71%.

Which results are given for `Cn1cc(NC(=O)c2cc3c([nH]c4ccccc43)c(CCc3ccccc3)n2)cn1`?
Activity [1]: 0%; Cell viability (BMDM): > 100%

With `Cc1cccc(C)c1NC(=O)c1cc2c([nH]c3ccccc32)c(CCc2ncc[nH]2)n1` as the compound, how does the Activity [1] read?
Its Activity is 28.6%.

And the Cell viability (BMDM)?
Its Cell viability is > 100%.

Which Activity [1] does the source give for `O=C(Nc1nccs1)c1cc2c([nH]c3ccccc32)c(CCc2ccccc2)n1` here?
The Activity was 27%.

What about the Cell viability (BMDM) of the same compound?
Its Cell viability is > 100%.

Which results are given for `O=C(Nc1cc[nH]n1)c1cc2c([nH]c3ccccc32)c(CCc2ccccc2)n1`?
Activity [1]: 39.9%; Cell viability (BMDM): > 100%

Which Activity [1] does the source give for `Cc1cccc(C)c1NC(=O)c1cc2c([nH]c3ccccc32)c(CCc2cccc(O)c2)n1` here?
Its Activity is 0%.

What about the Cell viability (BMDM) of the same compound?
Its Cell viability is > 100%.

Which Activity [1] does the source give for `O=C(Nc1ccccn1)c1cc2c([nH]c3ccccc32)c(CCc2ccccc2)n1` here?
Its Activity is 36.1%.

What about the Cell viability (BMDM) of the same compound?
The Cell viability was > 100%.
